Test results taken from US20220274997A1, “PIM KINASE INHIBITOR COMPOSITIONS AND USES THEREOF” (Snap Bio, Inc., priority 2019, published 2022).

How the values were obtained:
HepG2 = assay: CellTiter-Glo cancer cell growth inhibition, HepG2; format: cell-based, human; conditions: Homo sapiens, HepG2, 72 h
Description: (§1) The CellTiter-Glo® Luminescent Cell Viability Assay is a sensitive homogeneous method to determine the number of viable cells in culture, Detection is based on using the luciferase reaction to measure the amount of ATP from viable cells. The amount of ATP in cells correlates with cell viability. Within minutes after a loss of membrane integrity, cells lose the ability to synthesize ATP, and endogenous ATPases destroy any remaining ATP; thus the levels of ATP fall precipitously. The CellTiter-Glo® Reagent does three things upon addition to cells. It lyses cell membranes to release ATP; it inhibits endogenous ATPases, and it provides luciferin, luciferase and other reagents necessary to measure ATP using a bioluminescent reaction. The unique properties of a proprietary stable luciferase.
(§2) All assays were performed by Reaction Biology Corporation (Malvern, Pa.) or ChemDiv, Inc. (San Diego, Calif.). All cell lines were purchased from American Type Culture Collection (ATCC, Manassas, Va.), except Huh 7 (RIKEN, Toyo, Japan) and HepaRG (Life Technologies, Carlsbad, Calif.).
(§3) Stock solutions ([…]) were diluted with cell culture media to produce 500× serial dilutions and […] of final compound dilutions were added to cells in assay plates to screen a series of 10 doses starting at […]. Final DMSO concentration was 0.2%. Assay plates are centrifuged at 100 rpm, 1 minute and kept at 37° C., 5% CO2, humidified atmosphere. […] Luminescence intensity was measured for each well using the Tecan M 1000 microplate reader after 5 min of incubation with CellTiter-Glo Reagent. The number of viable cells in culture was determined based on quantitation of the ATP present in each culture well. […] The EC50 curves were plotted and […] values were calculated using the GraphPad Prism 4 program based on a sigmoidal dose-response equation.

A673 = assay: CellTiter-Glo cancer cell growth inhibition, A673; format: cell-based; conditions: Homo sapiens, A673, 72 h
Description: as §1, §2, §3

HepaRG = assay: CellTiter-Glo cancer cell growth inhibition, HepaRG; format: cell-based; conditions: Homo sapiens, 72 h
Description: as §1, §2, §3

| SMILES | EC50 (HepG2) [nM] | EC50 (A673) [nM] | EC50 (HepaRG) [nM] |
| --- | --- | --- | --- |
| O=C1NC(=O)c2c1c1c3cc(F)c(O)cc3[nH]c1c1c2c2ccccc2n1CCN1CCOCC1 [Compound 18, 3-fluoro-2-hydroxy-12-(2-morpholin-4-ylethyl)-12,13-dihydro-5H-indolo[2,3-a]pyrrolo[3,4-c]carbazole-5,7(6H)-dione] | 76 | – | – |
| O=C1NC(=O)c2c1c1c3ccccc3[nH]c1c1c2c2cc(F)c(O)cc2n1CCN1CCOCC1 [Compound 19, 3-fluoro-2-hydroxy-13-(2-morpholin-4-ylethyl)-12,13-dihydro-5H-indolo[2,3-a]pyrrolo[3,4-c]carbazole-5,7(6H)-dione] | 34 | 10 | 48 |
